≈ marks a conversion by molar mass, not a printed value. Where “and” joins values, the source holds several entries; their conditions need not be identical. Equal entries are not always repeated. Where two headings read alike, the source gives them in different places. Marks after values point to notes of the source that are not given here.

One assay concerns E. coli. Description: Checkerboard synergy assay (FICI) against E. coli. The class given is cell-based, Escherichia coli. The note with it: E. coli ATCC 25922. The text has this: In some embodiments, the Chp peptides disclosed herein or active fragments thereof reduce the minimum inhibitory concentration (MIC) of an antibiotic in the presence and/or absence of human serum, pulmonary surfactant, and/or sputum, including human sputum and human sputum from a cystic fibrosis patient. Any known method to assess MIC may be used. In some embodiments, a checkerboard assay is used to determine the effect of a Chp peptide or active fragment thereof on antibiotic concentration. The checkerboard assay is based on a modification of the CLSI method for MIC determination by broth microdilution (See Clinical and Laboratory Standards Institute (CLSI), CLSI. 2015. Methods for Dilution Antimicrobial Susceptibility Tests for Bacteria That Grow Aerobically; Approved Standard-10th Edition. Clinical and Laboratory Standards Institute, Wayne, PA, which is herein incorporated by reference in its entirety and Ceri et al. 1999. J. Clin. Microbiol. 37: 1771-1776, which is also herein incorporated by reference in its entirety).
Checkerboards are constructed by first preparing columns of e.g., a 96-well polypropylene microtiter plate, wherein each well has the same amount of antibiotic diluted 2-fold along the horizontal axis. […] The Chp peptide or active fragment thereof and antibiotic dilutions are then combined, so that each column has a constant amount of antibiotic and doubling dilutions of Chp peptide, while each row has a constant amount of Chp peptide and doubling dilutions of antibiotic. Each well thus has a unique combination of Chp peptide and antibiotic. Bacteria are added to the drug combinations at concentrations of 1×10^5 GFU/ml in CAA, for example, with or without human serum or pulmonary surfactant. […] Summation fractional inhibitory concentrations (ΣFICs) are calculated for each drug and the minimum ΣFIC value (ΣFICmin) is used to determine the effect of the Chp peptide/antibiotic combination.
(§1) GN370 was further tested in combination with up to seven additional antibiotics (in addition to meropenem) against a variety of bacterial strains, including P. aeruginosa, A. baumannii, E. coli, E. cloacae, and K. pneumoniae. GN370 and the subject antibiotics were tested in a checkerboard assay format, and FICI values were determined, wherein ≤0.5 indicates synergy, >0.5-≤1 indicates additive; and >1 indicates indifferent.

The test system of assay [1] is P. aeruginosa. Briefly: Checkerboard synergy assay (FICI) with antibiotics against P. aeruginosa. Particulars: for Antibiotic MIC (single agent): P. aeruginosa strain AR-769; for Antibiotic FIC / Antibiotic MIC (combo): P. aeruginosa strain AR-769, in combination with GN370; for Antibiotic MIC (combo): in µg/mL. The assay is classed as cell-based, Pseudomonas aeruginosa. Here is the method: (§2) Any known method to assess MIC may be used.
(§3) Checkerboards are constructed by first preparing columns of e.g., a 96-well polypropylene microtiter plate, wherein each well has the same amount of antibiotic diluted 2-fold along the horizontal axis. […] Bacteria are added to the drug combinations at concentrations of 1×10^5 […] in CAA, for example, with or without human serum or pulmonary surfactant. […] Summation fractional inhibitory concentrations (ΣFICs) are calculated for each drug and the minimum ΣFIC value (ΣFICmin) is used to determine the effect of the Chp peptide/antibiotic combination.
The synergy of GN370 with meropenem was evaluated against 3 different strains of P. aeruginosa and three different strains of B. cenocepacia.
as §1

Another assay has as its system A. baumannii. Briefly: Checkerboard synergy assay (FICI) against A. baumannii. The class given is cell-based, Acinetobacter baumannii. Particulars: A. baumannii ATCC BAA-747. Here is the method:
as §2, §3, §1

For assay [2], the system named is P. aeruginosa AR-769. Briefly: Repeat dose study of AM1 in the rabbit pulmonary infection model. The class given is in vivo.
Assay [3] concerns P. aeruginosa AR-769. Description: GN370 in the rabbit pneumonia model. The assay is classed as in vivo, New Zealand White rabbits. The note with it: amikacin-alone or GN370-alone.
The subject of the next assay is K. pneumoniae. Briefly: Checkerboard synergy assay (FICI) against K. pneumoniae. The class given is cell-based, Klebsiella pneumoniae. Particulars: K. pneumoniae HM-44. On the procedure: as §2, §3, §1
The test system of a further assay is E. cloacae. Description: Checkerboard synergy assay (FICI) against E. cloacae. The assay is classed as cell-based, Enterobacter cloacae. Particulars: E. cloacae ATCC 13047. Here is the method: as §2, §3, §1
For assay [4], the system named is P. aeruginosa. The note with it: XDR P. aeruginosa strain AR-769.
Assay [5] has as its system P. aeruginosa. Particulars: 21 day serial passage, literature; cited from earlier work.
The subject of assay [6] is P. aeruginosa. Briefly: Serial passage resistance development study, P. aeruginosa. The class given is cell-based, Pseudomonas aeruginosa. Particulars: for MIC: Pseudomonas aeruginosa.
[7] abbreviates: rabbit, amikacin 16 mg/kg i.v. every 8 hours (n = 17).

`NCC[C@H](O)C(=O)N[C@@H]1C[C@H](N)[C@@H](O[C@H]2O[C@H](CN)[C@@H](O)[C@H](O)[C@H]2O)[C@H](O)[C@H]1O[C@H]1O[C@H](CO)[C@@H](O)[C@H](N)[C@H]1O` [amikacin, reference compound]: the “FICI of the antibiotic with GN370” value in the assay with E. coli is 0.25. Moreover, the “FICI of the antibiotic with GN370” value in the assay on P. aeruginosa [1] (P. aeruginosa ATCC 27853, checkerboard) amounted to 0.375. Further, in the assay on P. aeruginosa [1], the Antibiotic MIC (single agent) turned out to be 0.5 µg/mL, the “Antibiotic FIC” value worked out at 0.25 and the “Antibiotic MIC (combo)” value was 0.125. Also, in the assay on A. baumannii, the “FICI of the antibiotic with GN370” value is on record as 0.625. In addition, the “mean bacterial density in lungs compared to the vehicle control group” value in the assay on P. aeruginosa AR-769 [2] (agent alone, intravenous, treatment from 6 hours post-infection) is listed as “moderate to no CFU/g reduction”. In the assay with P. aeruginosa AR-769 [2] (setting [7]), the “Log CFU change v. pre-treatment (at 6 hours)” value is 0.35* Log CFU, the “Mean Bacterial Density in Lung ± SD” value is recorded as 7.84 ± 1.06 Log CFU/lung and the Survival turned out to be 85%. Moreover, in the assay on P. aeruginosa AR-769 [3], the “decrease of mean bacterial densities in lungs vs vehicle controls” value is on record as 1.3 log10 CFU/g. In addition, in the assay on K. pneumoniae, the “FICI of the antibiotic with GN370” value amounted to 0.375. Further, in the assay on E. cloacae, the “FICI of the antibiotic with GN370” value came to 0.75. Moreover, the MIC – broadly, the lowest concentration that inhibits growth of the organism – against P. aeruginosa [4] was found to be 8 µg/mL (≈ 13.7 µM).

On to `O=C(O)c1cn(C2CC2)c2cc(N3CCNCC3)c(F)cc2c1=O` [ciprofloxacin, reference compound], for which the “increase of MIC over serial passage (D'Lima et al.)” value with P. aeruginosa [5] is listed as “up to 32 fold”. Besides, the Antibiotic MIC (single agent) with P. aeruginosa [1] was determined as 8 µg/mL. Also, the “Antibiotic FIC” value with P. aeruginosa [1] is 0.25; in the assay with P. aeruginosa [1] (listed as Ciprofloxacin), 0.125. Further, in the assay with P. aeruginosa [1], the “Antibiotic MIC (combo)” value is 2 and 1. In the assay with P. aeruginosa [6] (P. aeruginosa (PA453)), the “change in MIC over 28-day serial passage” value was “up to 512 fold”. Also, in the assay with P. aeruginosa [6] (P. aeruginosa strain CFS 1292, Day 28), the “change in MIC over serial passage” value was 256 fold. The MIC with P. aeruginosa [6] turned out to be 2 µg/mL (≈ 6.04 µM); in the assay on P. aeruginosa [6] (672 h, read-out: MIC after 28-day serial passage) it was 256 µg/mL (≈ 773 µM); in the assay on P. aeruginosa [6] (read-out: MIC at start of serial passage), 1 µg/mL (≈ 3.02 µM). Further, the “FICI of the antibiotic with GN370” value with K. pneumoniae came to 0.156.
